Test system: Palmitoyl CoA oxidation in rat heart mitochondria
Test: Palmitoyl CoA oxidation assay (mitochondrial assay, Example 16)
Assay type: biochemical
Conditions: 16 microM 1-C14 palmitoyl CoA, 15 min at 30° C., read-out: IC value, Palmitoyl CoA oxidation
Experimental: Rat heart mitochondria are isolated by the method of Nedergard and Cannon (Methods in Enzymol. 55, 3, 1979).
Palmitoyl CoA oxidation—The Palmityl CoA oxidation is carried out in a total volume of 100 micro liters containing the following agents: 110 mM KCl, 33 mM Tris buffer at pH 8, 2 mM KPi, 2 mM MgCl2, 0.1 mM EDTA, 14.7 microM defatted BSA, 0.5 mM malic acid, 13 mM carnitine, 1 mM ADP, 52 micrograms of mitochondrial protein, and 16 microM 1-C14 palmitoyl CoA (Sp. Activity 60 mCi/mmole; 20 microCi/ml, using 5 microliters per assay). The compounds of this invention are added in a DMSO solution at the following concentrations: 100 micro molar, 30 micro molar, and 3 micro molar. In each assay, a DMSO control is used. After 15 min at 30° C., the enzymatic reaction is centrifuged (20,000 g for 1 min), and 70 microliters of the supernatant is added to an activated reverse phase silicic acid column (approximately 0.5 ml of silicic acid). The column is eluted with 2 ml of water, and 0.5 ml of the eluent is used for scintillation counting to determine the amount of C^14 trapped as C^14 bicarbonate ion.

In the case of “{(3S)-4-[(2R)-2-hydroxy-3-(2-methylbenzothiazol-5-yloxy)propyl]-3-methylpiperazinyl}-N-(9-ethylcarbazol-3-yl)carboxamide”, the IC50 is reported as 2600 nM.

Source: patent US7208496B2, “Substituted heterocyclic compounds” (CV Therapeutics, Inc., priority 2003, dated 2007)
